Data published in paper PMC8159961, “Exploring protein hotspots by optimized fragment pharmacophores” (Nature Communications, 2021).

Assays:
human 5-HT6 receptor = target: T1, human 5-HT6 receptor (Homo sapiens, UniProt P50406); assay: GPCR radioligand binding assay, [3H]-LSD displacement, HEK293 membranes; conditions: for 5-HT6 % Inhibition by plate position: 10 µM; for %inh 5-HT6 average: average of exp_1 and exp_2; for %inh 5-HT6 corrected*: average, values below 0 and above 100% were set as 0 and 100; for %inh 5-HT6 exp_1: replicate exp_1; for %inh 5-HT6 exp_2: replicate exp_2
T1 construct: expressed in transfected cells
T1 sequence (P50406 whole entry): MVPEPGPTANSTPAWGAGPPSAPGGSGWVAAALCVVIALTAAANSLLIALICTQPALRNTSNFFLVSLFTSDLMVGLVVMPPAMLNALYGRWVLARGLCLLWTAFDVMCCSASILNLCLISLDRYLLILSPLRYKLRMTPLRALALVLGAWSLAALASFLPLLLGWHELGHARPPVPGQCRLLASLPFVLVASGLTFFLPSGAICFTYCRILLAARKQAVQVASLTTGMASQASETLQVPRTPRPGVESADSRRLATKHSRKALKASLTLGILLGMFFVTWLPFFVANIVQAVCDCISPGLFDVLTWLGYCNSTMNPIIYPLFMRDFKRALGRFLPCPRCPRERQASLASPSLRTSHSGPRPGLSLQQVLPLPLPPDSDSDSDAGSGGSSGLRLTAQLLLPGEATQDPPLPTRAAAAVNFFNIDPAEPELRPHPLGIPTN

human 5-HT7b receptor = target: T2, human 5-HT7b receptor (Homo sapiens, UniProt P34969); assay: GPCR radioligand binding assay, [3H]-5-CT displacement, HEK293 membranes; conditions: for 5-HT7 % Inhibition by plate position: 10 µM; for %inh 5-HT7 exp_1: replicate exp_1; for %inh 5-HT7 exp_2: replicate exp_2; for %inh 5-HT7 average: average of exp_1 and exp_2
T2 construct: expressed in transfected cells
T2 sequence (P34969 1-432): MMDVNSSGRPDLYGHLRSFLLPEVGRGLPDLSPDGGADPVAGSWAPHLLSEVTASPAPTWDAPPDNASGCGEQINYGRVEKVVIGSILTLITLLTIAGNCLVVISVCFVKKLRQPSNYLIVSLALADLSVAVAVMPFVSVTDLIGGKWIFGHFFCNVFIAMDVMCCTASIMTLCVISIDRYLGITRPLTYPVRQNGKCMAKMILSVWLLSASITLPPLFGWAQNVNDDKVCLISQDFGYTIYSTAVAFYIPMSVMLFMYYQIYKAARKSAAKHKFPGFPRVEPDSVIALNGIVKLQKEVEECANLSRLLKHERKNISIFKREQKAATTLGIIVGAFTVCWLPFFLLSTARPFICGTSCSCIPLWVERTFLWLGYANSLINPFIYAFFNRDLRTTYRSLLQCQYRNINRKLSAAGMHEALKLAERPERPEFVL

human 5-HT1A receptor = target: T3, human 5-HT1A receptor (Homo sapiens, UniProt P08908); assay: GPCR radioligand binding assay, [3H]-8-OH-DPAT displacement, HEK293 membranes; conditions: for 5-HT1A % Inhibition by plate position: 10 µM; for %inh 5-HT1A average: average of exp_1 and exp_2; for %inh 5-HT1A exp_1: replicate exp_1; for %inh 5-HT1A exp_2: replicate exp_2; for %inh 5-HT1A corrected*: average, values below 0 and above 100% were set as 0 and 100
T3 construct: expressed in transfected cells
T3 sequence (P08908 1-422): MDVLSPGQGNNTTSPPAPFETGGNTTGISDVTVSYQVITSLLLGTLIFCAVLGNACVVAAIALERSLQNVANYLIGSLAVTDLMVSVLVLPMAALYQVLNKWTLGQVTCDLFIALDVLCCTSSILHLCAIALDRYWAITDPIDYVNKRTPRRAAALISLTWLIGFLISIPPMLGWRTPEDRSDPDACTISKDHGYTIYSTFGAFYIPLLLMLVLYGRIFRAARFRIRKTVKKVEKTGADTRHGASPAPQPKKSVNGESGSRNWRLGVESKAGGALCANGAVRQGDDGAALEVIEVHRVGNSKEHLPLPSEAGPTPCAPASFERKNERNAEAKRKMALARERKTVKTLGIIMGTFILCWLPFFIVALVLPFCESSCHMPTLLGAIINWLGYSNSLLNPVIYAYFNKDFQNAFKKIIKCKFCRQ

Row | SMILES | 5-HT6 % Inhibition by plate position (human 5-HT6 receptor) | %inh 5-HT6 average (human 5-HT6 receptor) | %inh 5-HT6 corrected* (human 5-HT6 receptor) | %inh 5-HT6 exp_1 (human 5-HT6 receptor) | %inh 5-HT6 exp_2 (human 5-HT6 receptor) | 5-HT7 % Inhibition by plate position (human 5-HT7b receptor) | %inh 5-HT7 exp_1 (human 5-HT7b receptor) | %inh 5-HT7 exp_2 (human 5-HT7b receptor) | 5-HT1A % Inhibition by plate position (human 5-HT1A receptor) | %inh 5-HT1A average (human 5-HT1A receptor) | %inh 5-HT1A exp_1 (human 5-HT1A receptor) | %inh 5-HT1A exp_2 (human 5-HT1A receptor) | %inh 5-HT7 average (human 5-HT7b receptor) | %inh 5-HT1A corrected* (human 5-HT1A receptor)
1 | Cn1c(CO)nc2ccccc21 [G2] | 37% | 37% | 37% | 37% | 38% | 5% | 10% | 0.167% | 0% | -5% | 12% | -22% |  | 
2 | CN(C)c1cc(CN)ccn1 [G3] | 16% | 16% | 16% | 16% | 16% | 0% | -1.11% | -35% |  | 11% | 13% | 10% | -18% | 11%
3 | O=C(NC1CC1)c1ccccc1O [G4] | 24% | 24% | 24% | 28% | 20% | 0% | 1.81% | -25% |  | 1.71% | 3.42% | 0% | -12% | 1.71%
4 | c1ccc2sc(N3CCNCC3)nc2c1 [G5] | 42% | 42% | 42% | 49% | 35% | 28% | 32% | 25% |  | 83% | 78% | 88% |  | 83%
5 | O=C(O)C1CCCN(C(=O)N2CCCC2)C1 (centres unmarked) [G6] | 27% | 27% | 27% | 29% | 25% | 8.53% | 10% | 7% |  | 5% | 1% | 9% |  | 5%
6 | O=C1CCN(c2ccncc2)CC1 [G7] | 7% | 7% | 7% | 7.61% | 7% | 3.28% | -1.58% | 8% |  | 0.831% | -1.88% | 3.54% |  | 0.831%
7 | O=C1CCN(c2ccccn2)CC1 [G8] | 7% | 7% | 7% | 0% | 15% | 29% | 34% | 24% | 0% | -7% | 4% | -18% |  | 
8 | Nc1ccc(-c2ccccc2)cc1C(=O)O [G9] | 37% | 37% | 37% | 34% | 40% | 15% | 16% | 14% |  | 15% | 13% | 18% |  | 15%
9 | O=C(CN1CCCC1)c1ccccc1Cl [G10] | 19% | 19% | 19% | 17% | 20% | 3.47% | 8% | -1% |  | 78% | 77% | 79% |  | 78%
10 | CCc1nccn1CC(=O)O [G11] | 0% | -2% | 0% | -9% | 5% | 0% | -14% | 8% |  | 8.43% | 3.26% | 14% | -3.32% | 8.43%
11 | O=C(O)c1ccc(CN2CCOCC2)cc1 [H1] | 44% | 44% | 44% | 48% | 41% | 17% | 11% | 23% |  | 5% | 11% | -0.56% |  | 5%
12 | O=C(O)CC1CCC(=O)N1 (centres unmarked) [H2] | 16% | 16% | 16% | 18% | 15% | 7% | 4.76% | 9% | 0% | -0.447% | -9% | 8.47% |  | 
13 | FC1(F)CNCC(F)(F)O1 [H3] | 36% | 36% | 36% | 40% | 31% | 0% | -4% | -10% | 0% | -7% | 9% | -23% | -7% | 
14 | Fc1ccc2c(C3CCNCC3)c[nH]c2c1 [H4] | 90% | 90% | 90% | 81% | 98% | 78% | 78% | 78% |  | 81% | 87% | 75% |  | 81%
15 | Oc1ccc(-n2cncn2)cc1 [H5] | 36% | 36% | 36% | 39% | 32% | 25% | 29% | 21% | 0% | -1.29% | -9% | 6% |  | 
16 | Cn1nc(C(F)(F)F)cc1O [H6] | 0% | -24% | 0% | -16% | -31% | 9% | 4% | 14% |  | 21% | 21% | 21% |  | 21%
17 | O=C1CCC(=O)N(c2ccccc2)N1 [H7] | 22% | 22% | 22% | 24% | 20% | 24% | 27% | 21% |  | 6% | 7% | 5.53% |  | 6%
18 | O=C1CC(CSc2ccc(Cl)cc2)=NN1 [H8] | 12% | 12% | 12% | 9% | 14% | 0% | -1% | -14% | 0% | -0.353% | -4% | 3.38% | -7% | 
19 | O=C(c1ccccc1)N1CCC(CO)CC1 [H9] | 32% | 32% | 32% | 29% | 36% | 12% | 11% | 13% |  | 11% | 15% | 7% |  | 11%
